Tests used:
1HAEo- cells = experiment: Adenoviral transduction of 1HAEo- cells; type: cell-based, human; conditions: 10,000 particles per cell in OptiMEM; listed as peptide A
Method: (§1) Day 6 dendritic cells (see Example 1(v) above), or mouse bone marrow derived dendritic cells or mouse Sca1+ve stem cells, see (i) and (ii) above, were plated at 5×10^4 cells per well in a 48 well plate in 500 μl complete medium and allowed to settle for 3 hours at 37° C. Transductions were carried out in complete media, with virus being added at 100,000 viral particles/cell for 24 hours. Cells were harvested by scraping, spun down at 650 g (2000 rpm) for 5 min, resuspended in 300 μl PBS, and kept on ice before analysis. Viral transduction as determined by percentage of GFP positive cells was measured by FACS analysis. To measure percentage viability, 10 μl of 7-amino-actinomycin D (7AAD; Sigma, Poole, Dorset) was added immediately prior to analysis. Viral transduction of macrophages was carried out at 10,000 particles/cell in medium containing 2.5% FCS. […] Cells were then washed twice in PBS, trypsinised, triplicate wells pooled, spun down at 350×g for 5 min and resuspended in 300 μl PBS before analysis by flow cytometry where cell viability was to be measured, 10 μl 7AAD was added just prior to analysis.
(§2) For transduction of these other cell types, cells were seeded overnight at 5×10^4 cells per well in 24 well plates in the appropriate media. […] Where cell viability was to be measured, 10 μl 7-amino-actinomycin D (7AAD; Sigma, Poole, Dorset) was added just prior to analysis. […]

[1] = tested on: human monocyte-derived immature dendritic cells; type: cell-based; conditions: 100,000 viral particles/cell
From the text: Ad5 particles with the DC-binding peptides incorporated into the HI loop of the fibre protein were produced essentially as described previously ^12. Complementary oligonucleotides encoding the peptide sequences SHVKLNS [SEQ. ID. NO.:29] (5′ CC GGAAGCCACGTGAAGCTGAACAGCG 3′ [SEQ. ID. NO.:58] and 5′ CC GGCGCTGTTCAGCTTCACGTG GCTT 3′[SEQ. ID. NO.:59]) or APSNSTA [SEQ. ID. NO.:15] (5′ CC GGAGCCCCCAGCAACAGCACCGCCG 3′ [SEQ. ID. NO.:61] and 5′ CC GGCGGCGGTGCTGTTGCTGGG GGCT 3′ [SEQ. ID. NO.:62]) were synthesized (Operon Technologies, Alameda Calif. U.S.A.). The oligo pairs were then kinased, annealed, and ligated into the unique BspE1 site of pDV137 ^12, an expression construct encoding an Ad5 fibre protein with a double point mutant (KO1) which blocks CAR binding and a linker/restriction site in the HI loop, to create pDV178 (SHVKLNS) and pDV179 (APSNSTA). Following sequence confirmation, the plasmids were used to trans-complement the fibre-deleted vector Ad5.GFP.δF^18 by transient transfection into 293 cells as described ^19. Viral particles were purified by freeze/thaw lysis and CsCl gradient centrifugation and dialyzed into 40 mM TRIS-pH 8.1/0.9% NaCl/10% glycerol and stored at −80° C. Virus was quantified by protein assay (BioRad, Hercules Calif., U.S.A.) against BSA standards and using the relation 1 μg viral protein=4×10^9 viral particles.
Retargeted adenoviruses carrying a peptide A or B were used for the transduction experiments described below. Wild type adenovirus type 5 and type 5 adenovirus having a KO1 fibre, all supplied by Dr Dan von Seggern, and as described in Nicklin 2001 Mol Ther 2001 Dec.; 4(6):534-42), were used as controls.
(§3) Day 6 dendritic cells (see Example 1(v) above), or mouse bone marrow derived dendritic cells or mouse Sca1+ve stem cells, see (i) and (ii) above, were plated at 5×10^4 cells per well in a 48 well plate in 500 μl complete medium and allowed to settle for 3 hours at 37° C. Transductions were carried out in complete media, with virus being added at 100,000 viral particles/cell for 24 hours. Cells were harvested by scraping, spun down at 650 g (2000 rpm) for 5 min, resuspended in 300 μl PBS, and kept on ice before analysis. Viral transduction as determined by percentage of GFP positive cells was measured by FACS analysis. To measure percentage viability, 10 μl of 7-amino-actinomycin D (7AAD; Sigma, Poole, Dorset) was added immediately prior to analysis. Viral transduction of macrophages was carried out at 10,000 particles/cell in medium containing 2.5% FCS. For other cell types, cells were seeded overnight at 5×10^4 cells per well in 24-well plates in the appropriate media. Adenovirus was added in OptiMEM at 10,000 viral particles/cell, 1 ml per well in triplicate and incubated for 24 h at 37° C. Cells were then washed twice in PBS, trypsinised, triplicate wells pooled, spun down at 350×g for 5 min and resuspended in 300 μl PBS before analysis by flow cytometry where cell viability was to be measured, 10 μl 7AAD was added just prior to analysis.
Cells were pooled from three separate transduction experiments for the calculation of results.

HMEC-1 cells = experiment: Adenoviral transduction of HMEC-1 cells; type: cell-based, human; conditions: 10,000 particles per cell in OptiMEM; listed as peptide A
Method: as §1, §2

[2] = tested on: human monocyte-derived primary macrophages; experiment: Adenoviral transduction of primary macrophages; type: cell-based; conditions: 10,000 viral particles/cell in 2.5% serum
Method: as §3
10 mls of peripheral blood were diluted 1:1 with HBSS then layered on Lymphoprep (Nycomed), spun at 750 g for 30 min and purified […] were isolated from the interface. Excess Lymphoprep was removed by spinning cells down at 250 g for 10 min and any platelets present were removed by washing in HBSS twice, spinning the cells at 1200 rpm for 10 min each time. Monocytes were then isolated using MACs CD14 microbeads as described in the manufacturer's protocol. The mononuclear cells were plated into a […] flask in 10% FCS, RPMI for 1-2 hours (1 flask per 10 ml blood) before removing the supernatant and adding fresh 10% FCS, RPMI+10 ng/ml MCSF (macrophage colony stimulating factor). Half the medium was replaced with fresh 10% FCS, RPMI+MCSF (10 ng/ml) after 48 hours and the cells were used at day 6, harvesting by scraping the cells from the well.
Viral transduction was carried out at 10,000 particles/cell in medium containing 2.5% FCS. Viral transduction as determined by percentage of GFP positive cells was measured by FACS analysis. Cells were pooled from three separate transduction experiments for the calculation of results.

With “SHVKLNS (Synthetic peptide binding to dendritic cells)” as the substance, how does the “Transduction, % cells transduced” value (1HAEo- cells) read?
Its value is 82.9%.

What about the “Transduction (% GFP positive cells), donor A” value ([1]; complete medium, 24 hours, donor A) of the same substance?
Its value is 64.2%.

What about the “Transduction (% GFP positive cells), donor B” value ([1]; complete medium, 24 hours, donor B) of the same substance?
Its value is 78.9%.

And the “Percentage cell death, donor A” value ([1]; donor A, 7AAD)?
The value was “(12.0) %”.

And the “Percentage cell death, donor B” value ([1]; donor B, 7AAD)?
Its value is “(13.3) %”.

And the “Transduction, % cells transduced” value (HMEC-1 cells)?
The value was 95.7%.

And the “Transduction, % cells transduced” value ([2]; listed as A)?
The value was 67.6%.

And the “Transduction, % cells transduced” value ([2]; listed as peptide A)?
The value was 67.6%.
